Laboratory results: patent US9518018B2, “3-alkoxy, thioalkyl and amino-4-amino-6-(substituted)picolinates and their use as herbicides” (Dow AgroSciences LLC, priority 2011, dated 2016)
Read-outs that look alike come from different tables or passages of the source.

Experiments:
[1] = system: ABUTH: velvetleaf (Abutilon theophrasti); assay: Post-Emergent Test I herbicidal activity; assay type: in vivo; conditions: for pest or weed control at 280 g/ha / pest or weed control at 17.5 g/ha / pest or weed control at 35 g/ha / pest or weed control at 70 g/ha / pest or weed control at 140 g/ha / pest or weed control at 8.75 g/ha: Abutilon theophrasti, post-emergence, 336 h, read-out: Visual Growth Reduction (%)-14 Days after Application ABUTH; for pest or weed control at 17.5 g/ha: Table 4, 17.5 g ai/ha; for pest or weed control at 35 g/ha: Table 4, 35 g ai/ha; for pest or weed control at 70 g/ha: Table 4, 70 g ai/ha; for GR20 ABUTH: Table 4, growth reduction of 20% of plant growth; for GR20 ABUTH / GR50 ABUTH / GR80 ABUTH: 14 days after application, probit analysis; for GR50 ABUTH: Table 4, growth reduction of 50% of plant growth; for GR80 ABUTH: Table 4, growth reduction of 80% of plant growth; for pest or weed control at 8.75 g/ha: Table 4, 8.75 g ai/ha
Procedure, shortened: (§1)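 Greenhouse plants at first-second true leaf stage sprayed post-emergence by track sprayer at 187 L/ha with compound in acetone/DMSO/water/isopropanol carrier with crop oil concentrate and Triton X-155, top rate plus ½× to 1/16× serial rates. Injury scored visually at 14 d, 0-100% versus untreated plants; GR20, GR50, GR80 from probit analysis.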

[2] = system: CHEAL: lambsquarters (Chenopodium album); assay: Post-Emergent Test I herbicidal activity; assay type: in vivo; conditions: for pest or weed control at 17.5 g/ha: Table 4, 17.5 g ai/ha; for pest or weed control at 35 g/ha: Table 4, 35 g ai/ha; for pest or weed control at 70 g/ha: Table 4, 70 g ai/ha; for GR20 CHEAL: Table 4, growth reduction of 20% of plant growth; for GR20 CHEAL / GR50 CHEAL / GR80 CHEAL: 14 days after application, probit analysis; for GR50 CHEAL: Table 4, growth reduction of 50% of plant growth; for GR80 CHEAL: Table 4, growth reduction of 80% of plant growth; for pest or weed control at 8.75 g/ha: Table 4, 8.75 g ai/ha
Procedure, shortened: as §1

[3] = system: CYPES: yellow nutsedge (Cyperus esculentus); assay: Post-Emergent Test I herbicidal activity; assay type: in vivo; conditions: post-emergence, 336 h, read-out: Visual Growth Reduction (%)-14 Days after Application CYPES; for pest or weed control at 140 g/ha: Table 3, 140 g ai/ha
Procedure, shortened: as §1

[4] = system: ECHCG: barnyardgrass (Echinochloa crus-galli); assay: Post-Emergent Test I herbicidal activity; assay type: in vivo; conditions: post-emergence, 336 h, read-out: Visual Growth Reduction (%)-14 Days after Application ECHCG; for pest or weed control at 140 g/ha: Table 3, 140 g ai/ha
Procedure, shortened: (§2)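 Plants grown in greenhouse to first/second true leaf. Compound formulated in acetone:DMSO 97:3 then diluted into crop-oil/surfactant aqueous mix; serial twofold rates. Sprayed at 187 L/ha, 43 cm above canopy; solvent-blank controls. Scored visually at 14 d; probit fit for GR values.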

[5] = system: EPHHL: wild poinsettia (Euphorbia heterophylla); assay: Post-Emergent Test I herbicidal activity; assay type: in vivo; conditions: post-emergence, 336 h, read-out: Visual Growth Reduction (%)-14 Days after Application EPHHL; for pest or weed control at 140 g/ha: Table 3, 140 g ai/ha
Procedure, shortened: as §1

[6] = system: ORYSA: rice (Oryza sativa); assay: Post-Emergent Test I herbicidal activity; assay type: in vivo; conditions: post-emergence, 336 h, read-out: Visual Growth Reduction (%)-14 Days after Application ORYSA; for pest or weed control at 140 g/ha: Table 3, 140 g ai/ha
Procedure, shortened: as §2

ZEAMX: corn (Zea mays) = assay: Post-Emergent Test I herbicidal activity; assay type: in vivo; conditions: for GR20 ZEAMX: Table 4, growth reduction of 20% of plant growth; for GR20 ZEAMX / GR50 ZEAMX / GR80 ZEAMX: 14 days after application, probit analysis; for GR50 ZEAMX: Table 4, growth reduction of 50% of plant growth; for GR80 ZEAMX: Table 4, growth reduction of 80% of plant growth; for pest or weed control at 280 g/ha / pest or weed control at 17.5 g/ha / pest or weed control at 35 g/ha / pest or weed control at 70 g/ha / pest or weed control at 140 g/ha / pest or weed control at 8.75 g/ha: Zea mays, post-emergence, 336 h, read-out: Visual Growth Reduction (%)-14 Days after Application ZEAMX; for pest or weed control at 17.5 g/ha: Table 4, 17.5 g ai/ha; for pest or weed control at 35 g/ha: Table 4, 35 g ai/ha; for pest or weed control at 70 g/ha: Table 4, 70 g ai/ha; for pest or weed control at 8.75 g/ha: Table 4, 8.75 g ai/ha
Procedure, shortened: as §1

[7] = Chenopodium album, post-emergence, 336 h, read-out: Visual Growth Reduction (%)-14 Days after Application CHEAL
[8] = Chenopodium album, post-emergence, 336 h, Table 3, 140 g ai/ha, read-out: Visual Growth Reduction (%)-14 Days after Application CHEAL

Row | SMILES | pest or weed control at 17.5 g/ha [1] | pest or weed control at 35 g/ha [1] | pest or weed control at 70 g/ha [1] | pest or weed control at 140 g/ha ([1]; Table 4, 140 g ai/ha) | GR20 ABUTH [1] | GR50 ABUTH [1] | GR80 ABUTH [1] | pest or weed control at 17.5 g/ha [2, 7] | pest or weed control at 35 g/ha [2, 7] | pest or weed control at 70 g/ha [2, 7] | GR20 CHEAL [2] | GR50 CHEAL [2] | GR80 CHEAL [2] | GR20 ZEAMX (ZEAMX: corn (Zea mays)) | GR50 ZEAMX (ZEAMX: corn (Zea mays)) | GR80 ZEAMX (ZEAMX: corn (Zea mays)) | pest or weed control at 17.5 g/ha (ZEAMX: corn (Zea mays)) | pest or weed control at 35 g/ha (ZEAMX: corn (Zea mays)) | pest or weed control at 70 g/ha (ZEAMX: corn (Zea mays)) | pest or weed control at 140 g/ha (ZEAMX: corn (Zea mays); Table 4, 140 g ai/ha) | other results
1 | COC(=O)c1nc(Cl)cc(N)c1OC [Compound 1, methyl 4-amino-6-chloro-3-methoxypicolinate] | 40% | 85% | 95% | 95% | 10.5 g ai/ha | 19.4 g ai/ha | 35.9 g ai/ha | 90% | 90% | 95% | <17.5 g ai/ha | <17.5 g ai/ha | <17.5 g ai/ha | >280 g ai/ha | >280 g ai/ha | >280 g ai/ha | 0% | 0% | 0% | 0% | pest or weed control at 280 g/ha ([1]; Table 3, 280 g ai/ha): 100%; pest or weed control at 280 g/ha ([1]; Table 4, 280 g ai/ha): 100%; pest or weed control at 280 g/ha ([2]; Chenopodium album, post-emergence, 336 h, Table 3, 280 g ai/ha, read-out: Visual Growth Reduction (%)-14 Days after Application CHEAL): 100%; pest or weed control at 140 g/ha ([2]; Chenopodium album, post-emergence, 336 h, Table 4, 140 g ai/ha, read-out: Visual Growth Reduction (%)-14 Days after Application CHEAL): 100%; Visual Growth Reduction (%)-14 Days after Application CHEAL ([2]; Table 4, 280 g ai/ha): 100%; pest or weed control at 280 g/ha ([3]; Table 3, 280 g ai/ha): 0%; pest or weed control at 280 g/ha ([4]; Table 3, 280 g ai/ha): 0%; pest or weed control at 280 g/ha ([5]; Table 3, 280 g ai/ha): 100%; pest or weed control at 280 g/ha ([6]; Table 3, 280 g ai/ha): 0%; pest or weed control at 280 g/ha (ZEAMX: corn (Zea mays); Table 3, 280 g ai/ha): 0%; pest or weed control at 280 g/ha (ZEAMX: corn (Zea mays); Table 4, 280 g ai/ha): 0%; melting point: 78 to 79 °C
2 | COC(=O)c1nc(-c2ccc(Cl)cc2F)cc(N)c1OC [Compound 6, Methyl 4-amino-6-(4-chloro-2-fluorophenyl)-3-methoxypicolinate] | 75% | 80% | 85% | 85% | <8.75 g ai/ha | 6.42 g ai/ha | 38.1 g ai/ha | 100% | 100% | 100% | <8.75 g ai/ha | <8.75 g ai/ha | <8.75 g ai/ha | 132 g ai/ha | >140 g ai/ha | >140 g ai/ha | 0% | 0% | 10% | 20% | pest or weed control at 140 g/ha ([1]; Table 3, 140 g ai/ha): 60%; pest or weed control at 8.75 g/ha [1]: 50%; pest or weed control at 140 g/ha [2, 8]: 100%; pest or weed control at 8.75 g/ha [2, 7]: 90%; Visual Growth Reduction (%)-14 Days after Application CHEAL ([2]; Table 4, 140 g ai/ha): 100%; pest or weed control at 140 g/ha [3]: 20%; pest or weed control at 140 g/ha [4]: 0%; pest or weed control at 140 g/ha [5]: 100%; pest or weed control at 140 g/ha [6]: 5%; pest or weed control at 140 g/ha (ZEAMX: corn (Zea mays); Table 3, 140 g ai/ha): 0%; pest or weed control at 8.75 g/ha (ZEAMX: corn (Zea mays)): 0%; melting point: 139 to 144 °C
3 | COc1c(C(=O)O)nc(-c2ccc(Cl)cc2)c(F)c1N [Compound 47] | 95% | 95% | 100% | 100% | <8.75 g ai/ha | <8.75 g ai/ha | <8.75 g ai/ha | 100% | 100% | 100% | <8.75 g ai/ha | <8.75 g ai/ha | <8.75 g ai/ha | <8.75 g ai/ha | 12.6 g ai/ha | 74.1 g ai/ha | 55% | 75% | 80% | 85% | pest or weed control at 140 g/ha ([1]; Table 3, 140 g ai/ha): 100%; pest or weed control at 8.75 g/ha [1]: 90%; pest or weed control at 140 g/ha [2, 8]: 100%; pest or weed control at 8.75 g/ha [2, 7]: 90%; Visual Growth Reduction (%)-14 Days after Application CHEAL ([2]; Table 4, 140 g ai/ha): 100%; pest or weed control at 140 g/ha [3]: 100%; pest or weed control at 140 g/ha [4]: 100%; pest or weed control at 140 g/ha [5]: 100%; pest or weed control at 140 g/ha [6]: 45%; pest or weed control at 140 g/ha (ZEAMX: corn (Zea mays); Table 3, 140 g ai/ha): 85%; pest or weed control at 8.75 g/ha (ZEAMX: corn (Zea mays)): 40%
4 | COc1c(C(=O)OCc2ccccc2)nc(-c2ccc(Cl)c(OC)c2F)c(F)c1N [Compound 66, benzyl 4-amino-6-(4-chloro-2-fluoro-3-methoxyphenyl)-5-fluoro-3-methoxypicolinate] | – | – | – | – | – | – | – | – | – | – | – | – | – | – | – | – | – | – | – | – | pest or weed control at 140 g/ha ([1]; Table 3, 140 g ai/ha): 100%; pest or weed control at 140 g/ha [2, 8]: 100%; pest or weed control at 140 g/ha [3]: 100%; pest or weed control at 140 g/ha [4]: 60%; pest or weed control at 140 g/ha [5]: 100%; pest or weed control at 140 g/ha [6]: 0%; pest or weed control at 140 g/ha (ZEAMX: corn (Zea mays); Table 3, 140 g ai/ha): 80%; melting point: 118 °C
5 | COc1c(C(=O)O)nc(-c2ccc(Cl)c(OC)c2F)c(F)c1N [Compound 45, 4-amino-6-(4-chloro-2-fluoro-3-methoxyphenyl)-5-fluoro-3-methoxypicolinic acid] | 100% | 100% | 100% | 100% | <8.75 g ai/ha | <8.75 g ai/ha | <8.75 g ai/ha | 100% | 100% | 100% | <8.75 g ai/ha | <8.75 g ai/ha | <8.75 g ai/ha | <8.75 g ai/ha | 12.4 g ai/ha | >140 g ai/ha | 50% | 55% | 60% | 65% | pest or weed control at 140 g/ha ([1]; Table 3, 140 g ai/ha): 100%; pest or weed control at 8.75 g/ha [1]: 90%; pest or weed control at 140 g/ha [2, 8]: 100%; pest or weed control at 8.75 g/ha [2, 7]: 90%; Visual Growth Reduction (%)-14 Days after Application CHEAL ([2]; Table 4, 140 g ai/ha): 100%; pest or weed control at 140 g/ha [3]: 100%; pest or weed control at 140 g/ha [4]: 100%; pest or weed control at 140 g/ha [5]: 100%; pest or weed control at 140 g/ha [6]: 0%; pest or weed control at 140 g/ha (ZEAMX: corn (Zea mays); Table 3, 140 g ai/ha): 65%; pest or weed control at 8.75 g/ha (ZEAMX: corn (Zea mays)): 50%; melting point: 143 to 146 °C
